Assay results reported in ChEMBL document CHEMBL1159208, “The structures and cytotoxic properties of polyketide peroxides from a Plakortis sponge” (J Nat Prod, 1995).
The source made the active and inactive calls. No cut-off for these calls is given here.

Tested on: NCI60
Experiment: Cytotoxicity against human NCI60 cells
Assay type: functional, cell-based

C[C@]1(CCCCCCCCCCc2ccccc2)C[C@@]2(C)OC(=O)C[C@H]2O1
Activity: inactive

C[C@]1(CCCCCCCCc2ccccc2)CC[C@](C)(CCC(=O)O)OO1
Activity: inactive
